From publication PMC3774728, “Identification of the Plant Compound Geraniin as a Novel Hsp90 Inhibitor” (PLoS ONE, 2013)

How the values were obtained:
Format in all cases: cell-based, human
Jurkat cells = assay: MTT cell viability, Jurkat; details: Homo sapiens, 24 h
Experimental: To ensure logarithmic growth, cells were subcultured every two days. As control cells, human peripheral blood mononuclear cells (PBMC) were isolated from buffy coats of healthy donors (kindly provided by the Blood Center of the Hospital of Battipaglia, Salerno, Italy) by using standard Ficoll−Hypaque gradients. […] Proliferation of PBMC was induced by phytohemagglutinin (PHA) (10 µg mL^−1). Tumor and PBMC cells were treated with different concentrations of geraniin or 17-AAG to evaluate their cytotoxic effects. Stock solutions of geraniin (50 mM in DMSO) and 17-AAG (10 mM in DMSO) were stored a −20°C in the dark and diluted just before addition to the sterile culture medium. In all the experiments, the final concentration of DMSO was 0.10% (v/v).
Jurkat (2×10^4/well) and HeLa (5000/well) cells were seeded in triplicate in 96 well−plates and incubated for 24 h in the absence or presence of different concentrations of geraniin (between 0,5 µM to 50 µM) or 17-AAG (between 0,5 nM to 10 µM).
The number of viable cells was determined by using a [3–4,5-dimethyldiazol-2-yl]-2,5-diphenyl tetrazolium bromide (MTT, Sigma-Aldrich) conversion assay, according to the method described by Mosmann. […] The absorbance was measured with a microplate reader (Titertek multiskan MCC7340, LabSystems, Vienna, VA, USA) equipped with a 620 nm filter. […]

[1] = tested on: Hsp70, Hsp90 and Hsp90 client proteins in Jurkat cells; assay: Western blot of Hsp70 and Hsp90 client proteins, Jurkat; details: 24 h
Experimental: (§1) Treated cells were harvested and disrupted by freeze−thawing in RIPA buffer (50 mM Hepes, 10 mM EDTA, 150 mM NaCl, 1% NP-40, 0.5% sodium deoxycholate, 0.1% SDS, pH 7.4), supplemented with protease inhibitors cocktail (Sigma-Aldrich). Cell debris was removed by centrifugation at 4°C and the supernatant protein concentration was determined, according to the Bio-Rad Protein assay (Biorad Laboratories, CA, USA). Total proteins (30 µg) were separated by SDS-PAGE under denatured reducing conditions. Separated proteins were then transferred to nitrocellulose membranes and blocked for 3 h with a solution containing 3% BSA in 50 mM Tris, 200 mM NaCl, 0.1% Tween 20, before incubation at 4°C overnight with the different primary antibodies (diluted 1∶1000) against specific proteins. After washing, the membranes were incubated with an appropriate peroxidase-conjugate secondary antibodies at room temperature (1 h). Immunoreactive protein bands were detected by enhanced chemiluminescence reagent (ECL, Rockford, USA), according to the manufacturer’s instructions. Quantitative densitometry analyses were performed using a Gel Doc 2000 system (Biorad Laboratories, CA, USA).
Figure 7 Effect of geraniin on Hsp90 client protein levels. Equal amounts (30 µg) of whole-cell lysates were separated on SDS-PAGE and client proteins were visualized by western blot analysis using specific antibodies. Actin was used as loading control. […] The blots shown are representative of three different experiments with similar results.

[2] = tested on: Hsp70, Hsp90 and Hsp90 client proteins in HeLa cells; assay: Western blot of Hsp70 and Hsp90 client proteins, HeLa; details: 24 h
Experimental: as §1
Figure 7 Effect of geraniin on Hsp90 client protein levels. Equal amounts (30 µg) of whole-cell lysates were separated on SDS-PAGE and client proteins were visualized by western blot analysis using specific antibodies. Actin was used as loading control. Total cellular proteins were extracted 24 h after treatment with geraniin (2.5 µM, 5 µM and 10 µM) in Jurkat cells (A) or geraniin (1 µM, 0.7 µM and 0.5 µM) in HeLa cells (B), ctrl = control cells treated with DMSO). The blots shown are representative of three different experiments with similar results.

[3] = IC50 and lower and higher concentrations

`O=C1O[C@H]2[C@@H]3OC(=O)c4cc(O)c(O)c(O)c4-c4c(cc(O)c(O)c4O)C(=O)OC[C@H]2O[C@@H](OC(=O)c2cc(O)c(O)c(O)c2)[C@@H]3OC(=O)c2cc(O)c(O)c3c2[C@@H]2C1=CC(=O)[C@](O)(O3)C2(O)O` [Compound 54, geraniin] was tested, and the IC50 (Jurkat cells) was 0.76 ± 0.1 µM, the Hsp70 expression increase ([1]; 1 µM geraniin) was 3.5±0.12 fold and the “level of Akt” value [1] was “unaffected”. The “level of the client proteins c-Raf, pAkt and EGFR” value [1, 3] was “dose-dependent decrease”, the Hsp70 expression increase ([2]; 10 µM geraniin) was 2.7±0.09 fold and the “level of Akt” value [2] was “unaffected”. For the same molecule, the “level of the client proteins c-Raf, pAkt and EGFR” value [2, 3] was “dose-dependent decrease”.
